Measurements taken from paper PMC11167047 (Cell Death Discovery, 2024).

Experiments:
Assay in all cases: kinome screen (33PanQinase)
Assay type in all cases: biochemical
[1] = biological target: T1, STK33 (Homo sapiens, UniProt Q9BYT3)
T1 construct: purchased Reaction Biology Europe GmbH (formerly ProQinase)
Protocol: (§1) The Kinome Screening was performed by Reaction Biology Europe GmbH (http://reactionbiology.com; Freiburg i. Br., Germany).

[2] = biological target: T2, CDK2/CycD1 (Homo sapiens, UniProt P24941)
T2 construct: purchased Reaction Biology Europe GmbH (formerly ProQinase)
Protocol: as §1

[3] = biological target: T3, AuroraC (Homo sapiens, UniProt Q9UQB9)
T3 construct: purchased Reaction Biology Europe GmbH (formerly ProQinase)
T3 sequence (Q9UQB9 1-309): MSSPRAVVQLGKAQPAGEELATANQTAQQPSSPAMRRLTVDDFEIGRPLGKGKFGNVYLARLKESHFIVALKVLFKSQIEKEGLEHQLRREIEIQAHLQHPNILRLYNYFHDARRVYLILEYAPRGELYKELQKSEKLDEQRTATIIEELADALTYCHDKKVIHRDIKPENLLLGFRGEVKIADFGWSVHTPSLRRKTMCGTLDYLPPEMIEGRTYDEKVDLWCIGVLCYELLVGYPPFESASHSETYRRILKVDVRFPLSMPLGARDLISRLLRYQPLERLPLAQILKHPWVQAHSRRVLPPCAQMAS
Protocol: as §1

[4] = biological target: T4, CK2α2 (Homo sapiens, UniProt P19784)
T4 construct: purchased Reaction Biology Europe GmbH (formerly ProQinase)
Protocol: as §1

[5] = biological target: T5, PRK1 (Homo sapiens, UniProt Q16512)
T5 construct: purchased Reaction Biology Europe GmbH (formerly ProQinase)
T5 sequence (Q16512 whole entry): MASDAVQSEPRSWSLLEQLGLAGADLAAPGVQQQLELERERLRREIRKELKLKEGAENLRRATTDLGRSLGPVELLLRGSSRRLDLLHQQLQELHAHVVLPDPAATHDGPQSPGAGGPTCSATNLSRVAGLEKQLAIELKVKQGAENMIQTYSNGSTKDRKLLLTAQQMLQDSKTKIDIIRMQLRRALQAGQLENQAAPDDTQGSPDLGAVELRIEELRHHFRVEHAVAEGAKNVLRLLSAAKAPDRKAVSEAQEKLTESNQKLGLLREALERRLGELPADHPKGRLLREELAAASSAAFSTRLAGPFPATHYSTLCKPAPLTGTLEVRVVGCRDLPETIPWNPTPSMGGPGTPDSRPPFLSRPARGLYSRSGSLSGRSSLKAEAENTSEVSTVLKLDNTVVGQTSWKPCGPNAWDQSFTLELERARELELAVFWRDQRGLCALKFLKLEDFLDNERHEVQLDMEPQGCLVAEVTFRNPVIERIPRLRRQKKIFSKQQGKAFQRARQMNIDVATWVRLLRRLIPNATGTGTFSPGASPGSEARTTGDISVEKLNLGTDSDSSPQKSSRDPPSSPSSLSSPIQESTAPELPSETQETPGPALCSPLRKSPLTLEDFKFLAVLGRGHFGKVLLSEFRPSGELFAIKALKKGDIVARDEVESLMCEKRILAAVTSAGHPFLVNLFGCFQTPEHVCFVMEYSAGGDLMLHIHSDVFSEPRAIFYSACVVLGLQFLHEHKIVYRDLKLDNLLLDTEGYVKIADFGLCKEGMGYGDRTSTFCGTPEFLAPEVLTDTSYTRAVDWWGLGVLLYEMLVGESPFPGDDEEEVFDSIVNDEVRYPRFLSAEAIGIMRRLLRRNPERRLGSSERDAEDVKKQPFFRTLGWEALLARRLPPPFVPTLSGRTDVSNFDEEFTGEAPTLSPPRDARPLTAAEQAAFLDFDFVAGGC
Protocol: as §1

[6] = biological target: T6, MEKK3 (Homo sapiens, UniProt Q99759)
T6 construct: purchased Reaction Biology Europe GmbH (formerly ProQinase)
T6 sequence (Q99759 1-626): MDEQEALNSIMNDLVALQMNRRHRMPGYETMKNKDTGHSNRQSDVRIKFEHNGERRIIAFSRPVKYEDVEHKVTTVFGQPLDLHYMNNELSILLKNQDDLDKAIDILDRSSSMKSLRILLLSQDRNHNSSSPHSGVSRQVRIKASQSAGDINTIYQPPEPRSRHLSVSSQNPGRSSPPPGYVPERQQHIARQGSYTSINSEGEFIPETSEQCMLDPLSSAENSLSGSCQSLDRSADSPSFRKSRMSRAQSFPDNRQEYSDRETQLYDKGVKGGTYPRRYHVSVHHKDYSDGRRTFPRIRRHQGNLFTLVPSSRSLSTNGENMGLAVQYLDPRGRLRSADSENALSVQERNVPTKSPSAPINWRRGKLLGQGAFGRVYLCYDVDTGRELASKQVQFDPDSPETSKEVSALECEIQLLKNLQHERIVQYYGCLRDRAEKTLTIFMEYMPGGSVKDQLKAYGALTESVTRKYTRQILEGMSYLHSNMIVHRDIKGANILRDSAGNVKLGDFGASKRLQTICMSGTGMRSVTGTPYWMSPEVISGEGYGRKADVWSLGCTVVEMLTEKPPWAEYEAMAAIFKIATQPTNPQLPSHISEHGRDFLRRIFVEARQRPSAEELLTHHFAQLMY
Protocol: as §1

[7] = biological target: T7, ALK (Homo sapiens, UniProt Q9UM73)
T7 construct: purchased Reaction Biology Europe GmbH (formerly ProQinase)
Protocol: as §1

[8] = biological target: T8, SIK1 (Homo sapiens, UniProt P57059)
T8 construct: purchased Reaction Biology Europe GmbH (formerly ProQinase)
T8 sequence (P57059 whole entry): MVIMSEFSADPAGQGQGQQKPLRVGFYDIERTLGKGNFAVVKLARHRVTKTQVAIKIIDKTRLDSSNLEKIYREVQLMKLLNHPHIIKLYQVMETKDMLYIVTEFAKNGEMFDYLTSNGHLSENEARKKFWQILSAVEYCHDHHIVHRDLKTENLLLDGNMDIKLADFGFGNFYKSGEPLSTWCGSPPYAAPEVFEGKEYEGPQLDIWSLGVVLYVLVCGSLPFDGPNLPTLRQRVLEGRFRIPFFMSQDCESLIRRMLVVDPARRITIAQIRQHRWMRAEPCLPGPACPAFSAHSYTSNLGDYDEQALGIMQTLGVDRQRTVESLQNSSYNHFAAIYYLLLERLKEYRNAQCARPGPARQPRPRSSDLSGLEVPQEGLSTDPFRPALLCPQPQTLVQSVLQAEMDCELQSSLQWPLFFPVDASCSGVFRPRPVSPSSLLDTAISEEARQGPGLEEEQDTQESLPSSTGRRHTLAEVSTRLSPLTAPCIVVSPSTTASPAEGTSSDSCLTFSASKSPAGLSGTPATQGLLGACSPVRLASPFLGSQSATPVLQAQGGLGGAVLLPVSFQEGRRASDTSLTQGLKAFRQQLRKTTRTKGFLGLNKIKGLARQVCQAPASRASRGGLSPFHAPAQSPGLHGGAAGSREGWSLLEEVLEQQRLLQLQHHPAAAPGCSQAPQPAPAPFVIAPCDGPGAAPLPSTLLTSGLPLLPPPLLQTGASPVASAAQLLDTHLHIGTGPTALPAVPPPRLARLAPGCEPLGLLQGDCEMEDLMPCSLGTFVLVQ
Protocol: as §1

[9] = biological target: T9, CK1γ2 (Homo sapiens, UniProt P78368)
T9 construct: purchased Reaction Biology Europe GmbH (formerly ProQinase)
T9 sequence (P78368 whole entry): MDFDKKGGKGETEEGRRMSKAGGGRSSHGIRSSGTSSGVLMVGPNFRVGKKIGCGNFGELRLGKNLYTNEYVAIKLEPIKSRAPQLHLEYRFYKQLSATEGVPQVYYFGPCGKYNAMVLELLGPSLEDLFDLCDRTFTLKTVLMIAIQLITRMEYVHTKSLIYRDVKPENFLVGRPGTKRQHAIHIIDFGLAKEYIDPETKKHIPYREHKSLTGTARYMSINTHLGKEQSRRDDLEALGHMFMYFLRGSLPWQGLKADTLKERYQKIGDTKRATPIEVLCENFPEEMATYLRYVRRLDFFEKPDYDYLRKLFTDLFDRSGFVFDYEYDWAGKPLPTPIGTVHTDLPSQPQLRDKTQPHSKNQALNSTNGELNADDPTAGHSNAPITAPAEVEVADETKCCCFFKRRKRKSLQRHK
Protocol: as §1

[10] = biological target: T10, TLK1 (Homo sapiens, UniProt Q9UKI8)
T10 construct: purchased Reaction Biology Europe GmbH (formerly ProQinase)
T10 sequence (Q9UKI8 1-766): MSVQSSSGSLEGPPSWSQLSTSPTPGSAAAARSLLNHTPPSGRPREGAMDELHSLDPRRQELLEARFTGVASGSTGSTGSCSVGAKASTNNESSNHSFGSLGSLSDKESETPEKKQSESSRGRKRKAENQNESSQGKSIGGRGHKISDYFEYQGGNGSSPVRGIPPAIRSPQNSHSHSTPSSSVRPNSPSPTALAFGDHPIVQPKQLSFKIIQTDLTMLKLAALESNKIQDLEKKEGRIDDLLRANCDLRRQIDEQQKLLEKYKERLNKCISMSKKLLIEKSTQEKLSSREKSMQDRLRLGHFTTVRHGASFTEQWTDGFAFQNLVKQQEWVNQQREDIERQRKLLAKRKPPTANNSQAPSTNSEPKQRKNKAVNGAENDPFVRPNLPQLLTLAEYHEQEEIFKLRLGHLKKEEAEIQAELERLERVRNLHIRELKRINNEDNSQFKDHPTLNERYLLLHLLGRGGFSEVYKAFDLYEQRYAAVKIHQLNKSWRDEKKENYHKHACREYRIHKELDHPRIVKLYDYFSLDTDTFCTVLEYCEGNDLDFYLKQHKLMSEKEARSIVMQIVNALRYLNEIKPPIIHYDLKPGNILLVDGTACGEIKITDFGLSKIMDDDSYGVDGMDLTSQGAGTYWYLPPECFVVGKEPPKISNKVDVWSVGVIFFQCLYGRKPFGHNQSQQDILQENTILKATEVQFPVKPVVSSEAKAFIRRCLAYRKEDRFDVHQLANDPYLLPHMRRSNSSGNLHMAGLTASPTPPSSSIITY
Protocol: as §1

[11] = biological target: T11, HIPK1 (Homo sapiens, UniProt Q86Z02)
T11 construct: purchased Reaction Biology Europe GmbH (formerly ProQinase)
T11 sequence (Q86Z02 whole entry): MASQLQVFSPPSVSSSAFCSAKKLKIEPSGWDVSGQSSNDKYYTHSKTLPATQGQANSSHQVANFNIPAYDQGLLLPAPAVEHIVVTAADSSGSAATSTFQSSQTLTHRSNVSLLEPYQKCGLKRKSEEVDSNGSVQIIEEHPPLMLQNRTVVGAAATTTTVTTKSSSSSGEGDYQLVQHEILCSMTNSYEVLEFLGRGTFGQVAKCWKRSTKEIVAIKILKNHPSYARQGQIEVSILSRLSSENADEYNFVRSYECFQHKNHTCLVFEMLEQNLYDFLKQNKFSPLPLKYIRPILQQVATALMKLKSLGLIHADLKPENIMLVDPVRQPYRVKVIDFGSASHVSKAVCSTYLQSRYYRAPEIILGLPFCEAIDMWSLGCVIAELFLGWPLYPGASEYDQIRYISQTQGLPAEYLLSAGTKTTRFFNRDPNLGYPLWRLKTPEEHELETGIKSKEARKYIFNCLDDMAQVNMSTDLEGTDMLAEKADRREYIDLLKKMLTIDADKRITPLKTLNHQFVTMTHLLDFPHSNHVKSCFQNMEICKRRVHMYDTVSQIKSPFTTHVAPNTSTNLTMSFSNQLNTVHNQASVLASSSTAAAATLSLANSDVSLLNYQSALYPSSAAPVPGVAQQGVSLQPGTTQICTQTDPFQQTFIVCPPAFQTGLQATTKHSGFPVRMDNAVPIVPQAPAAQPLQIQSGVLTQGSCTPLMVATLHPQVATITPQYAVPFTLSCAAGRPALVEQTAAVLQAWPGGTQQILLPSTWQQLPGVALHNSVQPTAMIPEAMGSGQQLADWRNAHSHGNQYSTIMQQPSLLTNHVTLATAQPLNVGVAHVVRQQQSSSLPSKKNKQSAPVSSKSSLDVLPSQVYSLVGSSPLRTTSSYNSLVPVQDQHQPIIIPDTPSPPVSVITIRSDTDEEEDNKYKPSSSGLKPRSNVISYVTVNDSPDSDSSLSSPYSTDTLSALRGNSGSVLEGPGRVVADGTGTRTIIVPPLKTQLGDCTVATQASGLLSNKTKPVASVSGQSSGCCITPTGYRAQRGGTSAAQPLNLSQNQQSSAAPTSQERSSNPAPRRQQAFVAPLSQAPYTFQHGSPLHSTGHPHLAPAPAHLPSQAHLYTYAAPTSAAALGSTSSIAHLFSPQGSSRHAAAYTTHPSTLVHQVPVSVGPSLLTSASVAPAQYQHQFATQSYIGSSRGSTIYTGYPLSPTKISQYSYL
Protocol: as §1

[12] = biological target: T12, CK1γ1 (Homo sapiens, UniProt Q9HCP0)
T12 construct: purchased Reaction Biology Europe GmbH (formerly ProQinase)
T12 sequence (Q9HCP0 whole entry): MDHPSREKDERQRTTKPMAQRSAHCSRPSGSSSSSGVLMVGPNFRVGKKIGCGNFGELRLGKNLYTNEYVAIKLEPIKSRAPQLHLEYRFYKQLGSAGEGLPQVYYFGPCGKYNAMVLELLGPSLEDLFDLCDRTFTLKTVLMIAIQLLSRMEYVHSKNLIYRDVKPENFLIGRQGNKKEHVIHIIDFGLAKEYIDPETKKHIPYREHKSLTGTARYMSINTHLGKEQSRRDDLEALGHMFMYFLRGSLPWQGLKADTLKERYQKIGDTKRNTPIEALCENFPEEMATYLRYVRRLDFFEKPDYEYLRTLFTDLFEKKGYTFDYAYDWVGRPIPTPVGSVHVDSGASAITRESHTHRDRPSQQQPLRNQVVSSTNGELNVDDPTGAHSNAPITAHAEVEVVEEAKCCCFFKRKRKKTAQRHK
Protocol: as §1

[13] = biological target: T13, MINK1 (Homo sapiens, UniProt Q8N4C8)
T13 construct: purchased Reaction Biology Europe GmbH (formerly ProQinase)
T13 sequence (Q8N4C8 whole entry): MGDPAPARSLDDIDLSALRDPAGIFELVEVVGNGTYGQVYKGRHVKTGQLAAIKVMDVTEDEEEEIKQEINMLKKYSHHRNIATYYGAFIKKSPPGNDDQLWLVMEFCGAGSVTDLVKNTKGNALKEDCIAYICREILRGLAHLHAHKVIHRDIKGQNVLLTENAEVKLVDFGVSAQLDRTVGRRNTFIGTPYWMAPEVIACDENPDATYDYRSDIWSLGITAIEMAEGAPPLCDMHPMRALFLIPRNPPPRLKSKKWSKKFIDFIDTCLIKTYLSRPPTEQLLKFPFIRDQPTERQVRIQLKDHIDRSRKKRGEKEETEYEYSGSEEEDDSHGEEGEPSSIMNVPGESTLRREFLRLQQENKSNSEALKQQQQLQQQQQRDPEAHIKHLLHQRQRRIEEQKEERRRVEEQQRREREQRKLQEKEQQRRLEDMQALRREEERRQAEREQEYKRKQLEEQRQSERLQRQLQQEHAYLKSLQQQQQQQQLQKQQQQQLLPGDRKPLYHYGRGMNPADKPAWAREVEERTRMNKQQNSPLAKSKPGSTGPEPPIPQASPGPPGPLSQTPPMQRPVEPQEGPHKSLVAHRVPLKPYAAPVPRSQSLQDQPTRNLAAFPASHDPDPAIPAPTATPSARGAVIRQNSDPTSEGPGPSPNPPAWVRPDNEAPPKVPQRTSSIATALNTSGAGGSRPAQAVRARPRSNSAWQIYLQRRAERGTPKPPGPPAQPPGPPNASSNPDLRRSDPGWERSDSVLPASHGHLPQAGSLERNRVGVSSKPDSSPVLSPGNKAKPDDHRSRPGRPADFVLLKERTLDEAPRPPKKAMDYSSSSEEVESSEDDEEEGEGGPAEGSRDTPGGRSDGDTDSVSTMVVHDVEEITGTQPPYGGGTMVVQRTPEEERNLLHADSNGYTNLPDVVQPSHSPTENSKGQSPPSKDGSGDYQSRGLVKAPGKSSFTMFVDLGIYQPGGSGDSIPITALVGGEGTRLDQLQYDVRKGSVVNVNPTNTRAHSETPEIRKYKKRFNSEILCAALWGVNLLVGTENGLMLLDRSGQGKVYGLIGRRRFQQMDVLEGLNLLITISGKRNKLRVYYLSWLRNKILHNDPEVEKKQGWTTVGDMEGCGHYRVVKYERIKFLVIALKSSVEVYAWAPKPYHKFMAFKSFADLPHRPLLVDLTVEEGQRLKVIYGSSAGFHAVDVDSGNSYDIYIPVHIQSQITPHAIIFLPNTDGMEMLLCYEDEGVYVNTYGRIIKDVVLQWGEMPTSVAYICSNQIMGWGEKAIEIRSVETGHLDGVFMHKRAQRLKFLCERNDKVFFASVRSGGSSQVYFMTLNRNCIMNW
Protocol: as §1

Compound | residual kinase activity ([1]; 0.3 µM) | residual kinase activity ([2]; 0.3 µM) | residual kinase activity ([3]; 0.3 µM) | residual kinase activity ([4]; 0.3 µM) | residual kinase activity ([5]; 0.3 µM) | residual kinase activity ([6]; 0.3 µM) | residual kinase activity ([7]; 0.3 µM) | residual kinase activity ([8]; 0.3 µM) | residual kinase activity ([9]; 0.3 µM) | residual kinase activity ([10]; 0.3 µM) | residual kinase activity ([11]; 0.3 µM) | residual kinase activity ([12]; 0.3 µM) | residual kinase activity ([13]; 0.3 µM) | also measured
COc1ccnc2[nH]cc(-c3cc(N)nc(N)c3)c12 [meriolin 16] | 43 % of control | 23 % of control | 95 % of control | 105 % of control | 35 % of control | 90 % of control | 77 % of control | 98 % of control | 30 % of control | 89 % of control | 10 % of control | 38 % of control | 20 % of control | residual kinase activity ([1]; 0.03 µM): 73 % of control; residual kinase activity ([2]; 0.03 µM): 54 % of control; residual kinase activity ([3]; 0.03 µM): 104 % of control; residual kinase activity ([4]; 0.03 µM): 110 % of control; residual kinase activity ([5]; 0.03 µM): 84 % of control; residual kinase activity ([6]; 0.03 µM): 106 % of control; residual kinase activity ([7]; 0.03 µM): 104 % of control; residual kinase activity ([8]; 0.03 µM): 102 % of control; residual kinase activity ([9]; 0.03 µM): 86 % of control; residual kinase activity ([10]; 0.03 µM): 98 % of control; residual kinase activity ([11]; 0.03 µM): 49 % of control; residual kinase activity ([12]; 0.03 µM): 87 % of control; residual kinase activity ([13]; 0.03 µM): 75 % of control
c1ccc(CNc2cc(-c3c[nH]c4ncccc34)ccn2)cc1 [meriolin 36] | 41 % of control | 6 % of control | 76 % of control | 91 % of control | 17 % of control | 66 % of control | 60 % of control | 87 % of control | 19 % of control | 119 % of control | 47 % of control | 23 % of control | 2 % of control | residual kinase activity ([1]; 3 µM): 14 % of control; residual kinase activity ([2]; 3 µM): 5 % of control; residual kinase activity ([3]; 3 µM): 41 % of control; residual kinase activity ([4]; 3 µM): 43 % of control; residual kinase activity ([5]; 3 µM): 3 % of control; residual kinase activity ([6]; 3 µM): 26 % of control; residual kinase activity ([7]; 3 µM): 14 % of control; residual kinase activity ([8]; 3 µM): 48 % of control; residual kinase activity ([9]; 3 µM): 3 % of control; residual kinase activity ([10]; 3 µM): 106 % of control; residual kinase activity ([11]; 3 µM): 10 % of control; residual kinase activity ([12]; 3 µM): 3 % of control; residual kinase activity ([13]; 3 µM): 0 % of control
